# Reference: US20060229299A1, “5ht2c Receptor antagonists in the treatment of schizophrenia” (priority 2003, published 2006)
# How the values were obtained:
# H1 histamine receptor = H1 histamine receptor (Cavia porcellus, UniProt P31389); details: guinea-pig; cited from earlier work
# 5-HT7 receptor [1] = molecular target: 5-HT7 receptor (Rattus norvegicus, UniProt P32305); details: cited from earlier work
# D4 dopamine receptor [2] = molecular target: T1, D4 dopamine receptor (Rattus norvegicus, UniProt P30729); details: cited from earlier work
# T1 sequence (P30729 1-387): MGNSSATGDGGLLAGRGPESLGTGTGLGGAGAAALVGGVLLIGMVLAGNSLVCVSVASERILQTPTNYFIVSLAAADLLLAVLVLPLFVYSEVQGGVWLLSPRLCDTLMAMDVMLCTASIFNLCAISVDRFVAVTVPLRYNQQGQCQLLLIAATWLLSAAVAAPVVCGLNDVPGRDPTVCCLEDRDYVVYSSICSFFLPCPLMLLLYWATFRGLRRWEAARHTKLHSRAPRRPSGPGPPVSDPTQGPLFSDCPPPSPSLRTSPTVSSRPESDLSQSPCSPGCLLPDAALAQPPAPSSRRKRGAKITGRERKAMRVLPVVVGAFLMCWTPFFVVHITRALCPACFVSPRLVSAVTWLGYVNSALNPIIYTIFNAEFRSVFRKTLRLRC
# sigma, σ receptor = details: guinea-pig; cited from earlier work
# α1-adrenoceptor [3] = details: species for α1 not given; cited from earlier work
# 5-HT1A receptor [4] = molecular target: T2, 5-HT1A receptor (Rattus norvegicus, UniProt P19327); details: cited from earlier work
# T2 sequence (P19327 1-422): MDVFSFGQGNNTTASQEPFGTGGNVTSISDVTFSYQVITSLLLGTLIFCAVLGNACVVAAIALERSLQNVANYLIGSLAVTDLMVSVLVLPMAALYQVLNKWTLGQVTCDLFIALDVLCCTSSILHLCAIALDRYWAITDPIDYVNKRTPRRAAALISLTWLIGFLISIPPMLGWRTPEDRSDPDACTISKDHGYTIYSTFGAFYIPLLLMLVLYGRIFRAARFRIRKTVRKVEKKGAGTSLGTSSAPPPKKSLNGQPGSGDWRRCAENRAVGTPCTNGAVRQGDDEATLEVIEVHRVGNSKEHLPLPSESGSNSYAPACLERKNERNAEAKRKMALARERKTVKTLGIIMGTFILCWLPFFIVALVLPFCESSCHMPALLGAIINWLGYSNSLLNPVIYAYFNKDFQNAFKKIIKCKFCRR
# 5-HT2C receptor = molecular target: T3, 5-HT2C receptor (Sus scrofa, UniProt K7GSR7); details: pig; cited from earlier work
# T3 sequence (K7GSR7 1-457): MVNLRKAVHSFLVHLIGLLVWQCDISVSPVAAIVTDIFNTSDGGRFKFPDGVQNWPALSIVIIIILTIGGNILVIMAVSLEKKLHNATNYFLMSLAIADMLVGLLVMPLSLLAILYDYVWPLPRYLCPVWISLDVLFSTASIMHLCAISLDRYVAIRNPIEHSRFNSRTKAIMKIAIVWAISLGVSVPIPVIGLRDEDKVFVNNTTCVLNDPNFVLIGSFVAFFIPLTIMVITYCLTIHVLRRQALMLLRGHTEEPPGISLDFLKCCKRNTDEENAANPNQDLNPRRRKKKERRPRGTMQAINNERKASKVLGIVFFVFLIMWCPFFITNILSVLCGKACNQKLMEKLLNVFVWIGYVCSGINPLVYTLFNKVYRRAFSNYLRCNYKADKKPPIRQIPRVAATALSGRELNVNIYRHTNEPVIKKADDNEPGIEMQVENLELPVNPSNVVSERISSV
# [5] = molecular target: mACh, muscarinic acetylcholine receptor; details: rat; cited from earlier work
# [6] = test system: 5-HT2C receptor relative to 5-HT2A and D2 receptors; test: Relative 5-HT2C affinity (formula I, sum of 5-HT2C/5-HT2A and 5-HT2C/D2 affinity ratios); details: Table 2; sum of affinity ratios from data of Table 1
# [7] = molecular target: T4, M5 muscarinic acetylcholine receptor (Homo sapiens, UniProt P08912); details: expressed as KD; cited from earlier work
# T4 sequence (P08912 1-532): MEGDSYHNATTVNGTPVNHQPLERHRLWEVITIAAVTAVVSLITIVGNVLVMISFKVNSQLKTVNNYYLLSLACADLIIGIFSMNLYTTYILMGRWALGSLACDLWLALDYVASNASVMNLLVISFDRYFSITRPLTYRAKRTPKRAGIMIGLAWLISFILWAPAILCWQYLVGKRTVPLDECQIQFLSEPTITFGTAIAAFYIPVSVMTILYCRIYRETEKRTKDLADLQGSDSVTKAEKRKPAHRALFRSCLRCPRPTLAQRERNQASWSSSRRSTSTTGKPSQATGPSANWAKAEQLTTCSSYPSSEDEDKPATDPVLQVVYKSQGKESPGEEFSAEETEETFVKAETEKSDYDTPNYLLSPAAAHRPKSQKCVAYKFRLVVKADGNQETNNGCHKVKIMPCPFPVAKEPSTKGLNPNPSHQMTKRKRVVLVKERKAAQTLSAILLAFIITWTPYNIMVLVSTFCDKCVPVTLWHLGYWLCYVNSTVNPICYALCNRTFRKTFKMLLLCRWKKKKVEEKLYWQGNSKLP
# 5-HT6 receptor = 5-HT6 receptor (Rattus norvegicus, UniProt P31388); details: cited from earlier work
# 5-HT6 receptor, sequence (P31388 whole entry): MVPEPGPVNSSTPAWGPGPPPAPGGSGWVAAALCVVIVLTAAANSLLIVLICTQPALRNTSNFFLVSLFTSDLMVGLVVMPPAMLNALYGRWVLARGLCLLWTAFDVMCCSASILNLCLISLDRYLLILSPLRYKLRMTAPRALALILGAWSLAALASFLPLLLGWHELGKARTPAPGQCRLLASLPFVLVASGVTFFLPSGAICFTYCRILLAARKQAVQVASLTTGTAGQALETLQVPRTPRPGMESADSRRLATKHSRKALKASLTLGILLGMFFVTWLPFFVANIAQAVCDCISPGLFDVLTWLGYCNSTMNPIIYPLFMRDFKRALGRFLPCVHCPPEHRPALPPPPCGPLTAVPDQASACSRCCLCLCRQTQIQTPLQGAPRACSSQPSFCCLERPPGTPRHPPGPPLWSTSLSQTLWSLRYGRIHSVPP
# D4 dopamine receptor [8] = molecular target: T5, D4 dopamine receptor (Homo sapiens, UniProt P21917); details: human; cited from earlier work
# T5 sequence (P21917 1-419): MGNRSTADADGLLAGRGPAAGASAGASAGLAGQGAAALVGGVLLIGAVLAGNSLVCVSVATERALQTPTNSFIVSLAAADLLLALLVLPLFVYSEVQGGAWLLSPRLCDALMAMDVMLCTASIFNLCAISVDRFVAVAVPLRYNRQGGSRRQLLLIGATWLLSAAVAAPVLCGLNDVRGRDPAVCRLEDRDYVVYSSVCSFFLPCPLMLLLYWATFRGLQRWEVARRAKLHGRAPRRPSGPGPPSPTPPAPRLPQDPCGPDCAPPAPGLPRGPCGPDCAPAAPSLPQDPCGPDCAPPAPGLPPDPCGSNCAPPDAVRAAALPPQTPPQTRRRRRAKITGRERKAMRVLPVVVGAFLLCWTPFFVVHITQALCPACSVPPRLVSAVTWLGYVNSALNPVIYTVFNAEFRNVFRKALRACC
# [9] = molecular target: T6, M4 muscarinic acetylcholine receptor (Homo sapiens, UniProt P08173); details: expressed as KD; cited from earlier work
# T6 sequence (P08173 1-479): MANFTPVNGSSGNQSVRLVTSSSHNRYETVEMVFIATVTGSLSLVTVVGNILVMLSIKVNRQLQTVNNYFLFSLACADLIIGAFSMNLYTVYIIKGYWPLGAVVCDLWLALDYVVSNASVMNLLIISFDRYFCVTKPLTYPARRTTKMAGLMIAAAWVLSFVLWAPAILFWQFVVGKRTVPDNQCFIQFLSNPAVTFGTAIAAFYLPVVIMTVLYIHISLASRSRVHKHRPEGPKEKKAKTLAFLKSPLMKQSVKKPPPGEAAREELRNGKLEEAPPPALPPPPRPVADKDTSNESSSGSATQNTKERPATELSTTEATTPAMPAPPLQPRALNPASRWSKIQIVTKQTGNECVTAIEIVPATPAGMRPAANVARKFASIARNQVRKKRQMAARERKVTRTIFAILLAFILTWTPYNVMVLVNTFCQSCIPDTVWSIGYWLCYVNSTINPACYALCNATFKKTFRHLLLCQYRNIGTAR
# 5-HT7 receptor [10] = molecular target: 5-HT7 receptor (Mus musculus, UniProt P32304); details: cited from earlier work
# 5-HT7 receptor (Mus musculus, UniProt P32304), sequence (P32304 whole entry): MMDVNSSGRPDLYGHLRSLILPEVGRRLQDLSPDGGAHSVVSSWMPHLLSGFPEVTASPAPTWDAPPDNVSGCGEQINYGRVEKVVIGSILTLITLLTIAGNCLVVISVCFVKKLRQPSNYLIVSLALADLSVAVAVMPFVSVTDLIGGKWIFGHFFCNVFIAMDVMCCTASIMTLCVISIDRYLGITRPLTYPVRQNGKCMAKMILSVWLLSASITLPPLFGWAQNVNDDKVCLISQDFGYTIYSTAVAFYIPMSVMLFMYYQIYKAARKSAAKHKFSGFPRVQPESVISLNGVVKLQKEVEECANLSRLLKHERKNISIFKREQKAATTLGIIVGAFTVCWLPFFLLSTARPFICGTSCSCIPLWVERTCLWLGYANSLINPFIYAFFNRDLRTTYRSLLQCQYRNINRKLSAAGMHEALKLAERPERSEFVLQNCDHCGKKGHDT
# 5-HT3 receptor = molecular target: T7, 5-HT3 receptor (Mus musculus, UniProt P23979); details: cited from earlier work
# T7 sequence (P23979 24-489): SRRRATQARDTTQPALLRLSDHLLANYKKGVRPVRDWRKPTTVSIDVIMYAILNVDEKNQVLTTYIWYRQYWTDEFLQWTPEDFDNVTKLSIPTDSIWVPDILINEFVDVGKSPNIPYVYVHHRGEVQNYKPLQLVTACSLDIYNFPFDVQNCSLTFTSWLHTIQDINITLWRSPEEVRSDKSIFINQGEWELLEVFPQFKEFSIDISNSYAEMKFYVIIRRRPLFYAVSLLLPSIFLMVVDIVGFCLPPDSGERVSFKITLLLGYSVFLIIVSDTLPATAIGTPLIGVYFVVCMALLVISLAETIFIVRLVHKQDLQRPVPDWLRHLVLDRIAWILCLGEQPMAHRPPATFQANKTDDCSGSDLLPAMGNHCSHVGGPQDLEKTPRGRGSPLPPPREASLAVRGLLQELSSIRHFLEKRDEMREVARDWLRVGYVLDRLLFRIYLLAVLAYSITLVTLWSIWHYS
# [11] = molecular target: D2-L (long form of D2 receptor) (Homo sapiens, UniProt P14416); details: cited from earlier work
# D2-L (long form of D2 receptor), sequence (P14416 whole entry): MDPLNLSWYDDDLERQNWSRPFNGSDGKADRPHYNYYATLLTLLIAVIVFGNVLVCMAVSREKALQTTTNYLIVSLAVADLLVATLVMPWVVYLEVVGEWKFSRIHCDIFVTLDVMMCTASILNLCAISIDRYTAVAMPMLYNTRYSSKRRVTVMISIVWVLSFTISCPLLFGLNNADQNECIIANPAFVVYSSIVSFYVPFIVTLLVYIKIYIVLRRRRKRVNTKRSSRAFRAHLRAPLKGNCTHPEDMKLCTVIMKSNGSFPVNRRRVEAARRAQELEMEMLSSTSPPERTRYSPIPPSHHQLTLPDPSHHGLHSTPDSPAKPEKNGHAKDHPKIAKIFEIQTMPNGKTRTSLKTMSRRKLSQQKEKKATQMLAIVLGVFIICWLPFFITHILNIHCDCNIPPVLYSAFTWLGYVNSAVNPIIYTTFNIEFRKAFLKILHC
# [12] = molecular target: D2-S (short form of D2 receptor) (Homo sapiens, UniProt P14416); details: cited from earlier work
# D2-S (short form of D2 receptor), sequence (P14416 1-414 isoform P14416-2): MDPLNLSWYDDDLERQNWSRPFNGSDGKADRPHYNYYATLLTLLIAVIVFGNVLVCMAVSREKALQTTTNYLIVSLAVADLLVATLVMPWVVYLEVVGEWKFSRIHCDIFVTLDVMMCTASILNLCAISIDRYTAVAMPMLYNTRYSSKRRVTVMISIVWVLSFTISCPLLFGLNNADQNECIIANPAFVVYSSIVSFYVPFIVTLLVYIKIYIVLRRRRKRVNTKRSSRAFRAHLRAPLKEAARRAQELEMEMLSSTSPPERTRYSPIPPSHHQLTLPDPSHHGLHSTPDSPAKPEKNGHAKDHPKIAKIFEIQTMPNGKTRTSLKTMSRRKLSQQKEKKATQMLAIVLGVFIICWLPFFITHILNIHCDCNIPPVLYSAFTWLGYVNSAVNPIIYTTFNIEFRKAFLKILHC
# α2-adrenoceptor [13] = details: species for α2 not stated; cited from earlier work
# D1 dopamine receptor [14] = molecular target: D1 dopamine receptor (Rattus norvegicus, UniProt P18901); details: cited from earlier work
# [15] = molecular target: M1 muscarinic acetylcholine receptor (Homo sapiens, UniProt P11229); details: expressed as KD; cited from earlier work
# M1 muscarinic acetylcholine receptor, sequence (P11229 whole entry): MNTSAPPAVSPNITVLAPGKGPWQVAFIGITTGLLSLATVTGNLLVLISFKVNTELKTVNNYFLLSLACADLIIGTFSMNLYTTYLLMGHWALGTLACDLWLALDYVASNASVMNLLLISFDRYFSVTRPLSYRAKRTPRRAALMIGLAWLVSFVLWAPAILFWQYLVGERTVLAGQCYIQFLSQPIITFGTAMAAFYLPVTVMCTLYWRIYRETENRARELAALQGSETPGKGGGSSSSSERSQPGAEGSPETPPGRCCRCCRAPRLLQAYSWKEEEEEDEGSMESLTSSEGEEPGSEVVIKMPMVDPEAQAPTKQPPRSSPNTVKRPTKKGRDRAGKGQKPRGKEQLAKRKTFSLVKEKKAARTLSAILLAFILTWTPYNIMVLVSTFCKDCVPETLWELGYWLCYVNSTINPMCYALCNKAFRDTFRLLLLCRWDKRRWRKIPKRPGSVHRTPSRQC
# [16] = molecular target: M3 muscarinic acetylcholine receptor (Homo sapiens, UniProt P20309); details: expressed as KD; cited from earlier work
# M3 muscarinic acetylcholine receptor, sequence (P20309 whole entry): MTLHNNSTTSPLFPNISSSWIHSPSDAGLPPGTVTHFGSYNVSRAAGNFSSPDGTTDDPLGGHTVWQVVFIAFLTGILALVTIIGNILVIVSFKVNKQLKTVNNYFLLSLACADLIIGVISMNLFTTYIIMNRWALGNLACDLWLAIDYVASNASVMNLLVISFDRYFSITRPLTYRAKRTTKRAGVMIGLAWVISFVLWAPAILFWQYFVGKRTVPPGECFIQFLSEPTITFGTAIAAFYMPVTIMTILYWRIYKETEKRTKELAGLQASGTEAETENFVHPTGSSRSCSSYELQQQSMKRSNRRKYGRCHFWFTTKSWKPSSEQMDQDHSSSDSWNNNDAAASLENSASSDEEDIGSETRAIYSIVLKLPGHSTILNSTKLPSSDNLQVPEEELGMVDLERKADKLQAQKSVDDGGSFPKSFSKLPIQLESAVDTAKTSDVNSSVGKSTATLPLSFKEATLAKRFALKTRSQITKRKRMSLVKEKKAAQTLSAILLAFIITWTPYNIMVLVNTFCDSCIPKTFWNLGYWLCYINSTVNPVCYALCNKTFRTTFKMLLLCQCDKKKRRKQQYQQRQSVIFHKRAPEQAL
# 5-HT1A receptor [17] = molecular target: 5-HT1A receptor (Homo sapiens, UniProt P08908); details: cited from earlier work
# 5-HT1A receptor (Homo sapiens, UniProt P08908), sequence (P08908 whole entry): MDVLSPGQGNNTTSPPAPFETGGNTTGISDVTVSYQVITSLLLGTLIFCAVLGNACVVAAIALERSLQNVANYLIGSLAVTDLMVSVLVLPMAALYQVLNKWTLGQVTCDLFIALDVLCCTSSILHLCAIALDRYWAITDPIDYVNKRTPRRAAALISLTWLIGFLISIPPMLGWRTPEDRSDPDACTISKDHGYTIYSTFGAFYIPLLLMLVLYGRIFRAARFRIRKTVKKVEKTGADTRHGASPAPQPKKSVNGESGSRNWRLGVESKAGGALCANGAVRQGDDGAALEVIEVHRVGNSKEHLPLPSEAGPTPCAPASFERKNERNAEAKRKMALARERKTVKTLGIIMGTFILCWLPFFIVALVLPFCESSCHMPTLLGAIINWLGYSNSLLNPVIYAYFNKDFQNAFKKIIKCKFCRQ
# D1 dopamine receptor [18] = molecular target: D1 dopamine receptor (Homo sapiens, UniProt P21728); details: cited from earlier work
# D1 dopamine receptor (Homo sapiens, UniProt P21728), sequence (P21728 whole entry): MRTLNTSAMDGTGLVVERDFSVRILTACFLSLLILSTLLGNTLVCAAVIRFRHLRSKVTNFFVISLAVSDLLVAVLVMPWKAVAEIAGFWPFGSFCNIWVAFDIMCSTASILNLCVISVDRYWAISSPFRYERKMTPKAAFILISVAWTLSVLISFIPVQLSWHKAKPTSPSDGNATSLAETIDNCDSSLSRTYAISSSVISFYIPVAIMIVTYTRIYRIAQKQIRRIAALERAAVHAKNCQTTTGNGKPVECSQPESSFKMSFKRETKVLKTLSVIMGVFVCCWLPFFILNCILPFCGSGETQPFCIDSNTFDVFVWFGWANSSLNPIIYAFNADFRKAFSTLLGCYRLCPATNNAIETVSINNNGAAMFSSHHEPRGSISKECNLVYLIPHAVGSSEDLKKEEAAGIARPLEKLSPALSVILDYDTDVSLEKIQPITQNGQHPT
# [19] = molecular target: mACh, muscarinic acetylcholine receptor; details: human, expressed as KD; cited from earlier work
# α1-adrenoceptor [20] = details: human, expressed as KD; cited from earlier work
# α2-adrenoceptor [21] = details: human, expressed as KD; cited from earlier work
# [22] = molecular target: M2 muscarinic acetylcholine receptor (Homo sapiens, UniProt P08172); details: expressed as KD; cited from earlier work
# M2 muscarinic acetylcholine receptor, sequence (P08172 whole entry): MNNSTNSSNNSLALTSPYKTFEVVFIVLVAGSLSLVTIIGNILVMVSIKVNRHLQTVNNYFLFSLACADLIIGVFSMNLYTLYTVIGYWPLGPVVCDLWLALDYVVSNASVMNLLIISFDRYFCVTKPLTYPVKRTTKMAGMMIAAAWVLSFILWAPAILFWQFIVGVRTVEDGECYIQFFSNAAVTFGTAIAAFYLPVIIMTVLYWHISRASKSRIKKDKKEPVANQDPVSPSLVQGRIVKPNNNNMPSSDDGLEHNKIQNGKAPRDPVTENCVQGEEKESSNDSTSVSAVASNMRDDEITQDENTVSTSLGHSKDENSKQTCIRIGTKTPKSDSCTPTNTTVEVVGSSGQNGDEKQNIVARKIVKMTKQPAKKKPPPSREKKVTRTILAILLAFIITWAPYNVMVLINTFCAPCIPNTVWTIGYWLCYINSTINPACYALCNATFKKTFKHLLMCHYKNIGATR
# H1 histamine receptor, sequence (P31389 whole entry): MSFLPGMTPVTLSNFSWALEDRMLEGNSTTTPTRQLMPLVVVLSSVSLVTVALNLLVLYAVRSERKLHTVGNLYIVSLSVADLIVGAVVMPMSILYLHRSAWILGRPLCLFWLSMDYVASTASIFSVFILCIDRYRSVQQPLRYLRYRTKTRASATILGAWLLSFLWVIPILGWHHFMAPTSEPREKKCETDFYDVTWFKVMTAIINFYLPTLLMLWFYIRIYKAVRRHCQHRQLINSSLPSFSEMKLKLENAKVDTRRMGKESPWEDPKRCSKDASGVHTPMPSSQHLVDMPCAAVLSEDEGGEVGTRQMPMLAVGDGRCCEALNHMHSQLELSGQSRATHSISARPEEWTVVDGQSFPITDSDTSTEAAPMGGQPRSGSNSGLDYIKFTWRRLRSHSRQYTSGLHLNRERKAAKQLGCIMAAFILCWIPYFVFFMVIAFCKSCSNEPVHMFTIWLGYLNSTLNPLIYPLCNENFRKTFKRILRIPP
# 5-HT7 receptor (Rattus norvegicus, UniProt P32305), sequence (P32305 whole entry): as the sequence (P32304 whole entry) above, with R27G, S39P, P53L, S279P, C438S counted along it
SMILES,H1 affinity value (−logKi) (H1 histamine receptor),5-HT7 affinity value (−logKi) (5-HT7 receptor [1]),D4 affinity value (−logKi) (D4 dopamine receptor [2]),"sigma affinity value (−logKi) (sigma, σ receptor)",α1 affinity value (−logKi) (α1-adrenoceptor [3]),5-HT2C affinity value (−logKi) (5-HT2C receptor),mACh affinity value (−logKi) [5],(2C/2A) + (2C/D2) [6],M5 affinity value (−log KD) [7],5-HT6 affinity value (−logKi) (5-HT6 receptor),D4 affinity value (−logKi) (D4 dopamine receptor [8]),M4 affinity value (−log KD) [9],M3 affinity value (−log KD) [16],other results
CN(C)CCOC1=Cc2ccccc2Sc2ccc(Cl)cc21 [Zotepine],8.5^6,8.8^2,8.2^4,6.3^6,8.5^6,8.5^6,6.3^6,2.02,6.6^15,9.0^2,7.4^6,7.1^15,–,5-HT1A affinity value (−logKi) (5-HT1A receptor [4]): 6.5^6
NC(=O)C1(N2CCCCC2)CCN(CCCC(=O)c2ccc(F)cc2)CC1 [Pipamperone],<5.3^6,–,–,7.3^6,7.2^6,6.9^6,<5.3^6,1.83,–,–,8.3^6,–,–,5-HT7 affinity value (−logKi) (5-HT7 receptor [10]): 6.8^6; 5-HT3 affinity value (−logKi) (5-HT3 receptor): <5.3^6; D2-L affinity value (−logKi) [11]: 6.9^6; D2-S affinity value (−logKi) [12]: 7.0^6; α2 affinity value (−logKi) (α2-adrenoceptor [13]): 6.2^6
CN1CCN(C2=Nc3ccccc3Oc3ccc(Cl)cc32)CC1 [Loxapine],–,–,7.9^4,–,–,–,–,–,6.6^15,–,–,6.5^15,6.4^15,D1 affinity value (−logKi) (D1 dopamine receptor [14]): 7.5^18; M1 affinity value (−log KD) [15]: 7.2^15; 5-HT1A affinity value (−logKi) (5-HT1A receptor [17]): 5.5^5
CN1CCN(CC/C=C2/c3ccccc3Sc3ccc(S(=O)(=O)N(C)C)cc32)CC1 [Thiothixene],–,7.9^2,7.1^4,–,–,–,–,1.43,5.4^15,7.4^2,–,5.8^15,5.8^15,D1 affinity value (−logKi) (D1 dopamine receptor [18]): 6.5^9; mACh affinity value (−log KD) [19]: 5.5^16; α1 affinity value (−log KD) (α1-adrenoceptor [20]): 8.0^16; α2 affinity value (−log KD) (α2-adrenoceptor [21]): 6.7^16; M2 affinity value (−log KD) [22]: 5.7^15
